Non-standard residues stand in square brackets, D forms with d. Residues, ends and D or L forms follow the SMILES beside them. Orn = NCCC[C@H](N)C(=O)O

For series [1] the following is noted: 25% (v/v) human serum in 0.1 M TRIS buffer pH 7.4, peptide 200 μM, 37 °C, 0/24/48/72 h, LC-MS UV trace vs 4-hydroxybenzoic acid internal standard, n = 3. Here is the method: Human serum was diluted in 0.1 M filtered TRIS buffer pH 7.4 (50%, 1:1, v/v). Selected peptides were diluted in 0.1 M filtered TRIS buffer pH 7.4 to a concentration of 400 μM and 0.1 mg/mL 4- hydroxybenzoic acid was added as internal standard. Aliquots of peptide solution (300 μL) were added to aliquots of serum (300 μL) in sterile 1.5 mL Eppendorf tubes, to reach a peptide concentration of 200 μM and 25% (v/v) human serum during the assay. Samples, in triplicate, were incubated at 37 °C under gentle stirri ng (200 rpm). At different time points (0, 24, 48 and 72 hours), 100 μL of each sample was collected and quenched by precipitating serum proteins through the addition of (0.1 M) ZnSO4·7 H2O / ACN (1:1) (0.1 M, 100 μL) and cooling in ice bath for 10 minutes. Protein precipitates were pelleted under centrifugation (5 min at 14’000 rpm) and the supernatants were analysed by LC-MS. Peaks corresponding to the internal standard and the undegraded peptides were integrated from the area under the curves (AUC) of UV traces, with the ratio peptide/standard at t = 0 h as 100%.
Figure S7. Serum stability assay of the respective compound (200 μM), incubated with human serum (25% in TRIS buffer, 0.1 M, pH 7.4) at 37 °C. Aliquots were taken at different time (0 / 24 / 48 and 72 h). Undegraded peptide values determined by RP -HPLC analysis usi ng hydroxybenzoic acid as internal standard. Measured in triplicates and the data represent mean ± SD, n […]
(1 picture or pasted object on this page, not shown here)

The subject of another series is human red blood cells. Conditions: red cells of human, 6 h.

`CC[C@H](C)[C@H](NC(=O)[C@H](CCCN)NC(=O)[C@H](CCCNC(=N)N)NC(=O)[C@@H]1CCCN1C(=O)[C@@H]1CCCN1C(=O)[C@H](CCCNC(=N)N)NC(=O)[C@@H]1CCCN1C(=O)[C@H](CCCNC(=N)N)NC(=O)[C@@H]1CCCN1C(=O)[C@H](CC(C)C)NC(=O)[C@H](Cc1ccc(O)cc1)NC(=O)[C@@H]1CCCN1C(=O)[C@@H]1CCCN1C(=O)[C@H](CCCCN)NC(=O)[C@H](CC(=O)O)NC(=O)[C@@H](N)C(C)C)C(=O)N[C@@H](Cc1ccc(O)cc1)C(=O)N[C@@H](CC(N)=O)C(=O)N[C@@H](CCCN)C(N)=O` [Onc72] (H-VDKPPYLPRPRPPR[Orn]IYN[Orn]-NH2): the “Serum stability (undegraded peptide)” value in series [1] is recorded as “essentially stable to degradation over 24 h”. Besides, the “MHC human red blood cells” value with human red blood cells is more than 1000 µg/mL.

(Values after paper PMC11571207, “Stereorandomized Oncocins with Preserved Ribosome Binding and Antibacterial Activity” (Journal of Medicinal Chemistry, 2024).)
